Reference: patent US7732599B2, “Process for preparing tetrahydrobiopterin and analogs of tetrahydrobiopterin” (BioMarin Pharmaceutical Inc., priority 2003, dated 2010)

Assay: Solubility in the reaction solvent dimethylaminoacetate at room temperature
Assay type: physicochemical
Details: described as low solubility
Protocol: The conversion of the primary hydroxyl of L-Neopterin to a thioether was performed to prepare 6-((1R,2R)-1,2-dihydroxy-3-phenylthiopropyl)-2-[(methylethyl)amino]-3-hydropteridin-4-one (the compound labeled “15” in FIG. 4). To a flask containing 50 grams of 6-((2S,1R)-1,2,3-trihydroxypropyl)-2-[(1Z)-1-aza-2-(dimethylamino)vinyl]-3-hydropteridin-4-one (DMA-Neopterin, the compound labeled “6” in FIG. 2) and 400 ml of dimethylaminoacetate was added to the flask. To this stirring mixture 1 molar equivalent of diphenyl disulfide and tributylphosphine were added to the flask. […] It is believed that the thioether product is more soluble in dimethylaminoacetate. The reaction mixture was allowed to was allowed to stir for 4 hours at room temperature. Nine grams of the thioether product was isolated.

CN(C)C=Nc1nc2ncc([C@@H](O)[C@@H](O)CO)nc2c(=O)[nH]1 [DMA-Neopterin, 6-((2S,1R)-1,2,3-trihydroxypropyl)-2-[(1Z)-1-aza-2-(dimethylamino)vinyl]-3-hydropteridin-4-one]
solubility in dimethylaminoacetate: approximately 3.5 mg/ml
